Source: patent US10961198B2, “Farnesoid X receptor agonists and uses thereof” (Metacrine, Inc., priority 2017, dated 2021)

Each compound was assayed against hFXR (Homo sapiens (Human), UniProt Q96RI1) (assay: In Vitro FXR Assay (TK)). Conditions: CV-1 cells transfected with hFXR, hRXR, TK-ECRE-luc and pCMX-YFP; incubated 18 hrs; luminescence; maximum efficacy <25% of the Fexarmine control classified as '+'.
Format: cell-based
In short: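 CV-1 cells transiently cotransfected with hFXR, hRXR, TK-ECRE-luc reporter and pCMX-YFP plasmids in charcoal-stripped serum medium. Serially diluted compounds added for 18 h at 37° C., then cells lysed and luciferase luminescence measured.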

Chain of hFXR (Q96RI1 whole entry): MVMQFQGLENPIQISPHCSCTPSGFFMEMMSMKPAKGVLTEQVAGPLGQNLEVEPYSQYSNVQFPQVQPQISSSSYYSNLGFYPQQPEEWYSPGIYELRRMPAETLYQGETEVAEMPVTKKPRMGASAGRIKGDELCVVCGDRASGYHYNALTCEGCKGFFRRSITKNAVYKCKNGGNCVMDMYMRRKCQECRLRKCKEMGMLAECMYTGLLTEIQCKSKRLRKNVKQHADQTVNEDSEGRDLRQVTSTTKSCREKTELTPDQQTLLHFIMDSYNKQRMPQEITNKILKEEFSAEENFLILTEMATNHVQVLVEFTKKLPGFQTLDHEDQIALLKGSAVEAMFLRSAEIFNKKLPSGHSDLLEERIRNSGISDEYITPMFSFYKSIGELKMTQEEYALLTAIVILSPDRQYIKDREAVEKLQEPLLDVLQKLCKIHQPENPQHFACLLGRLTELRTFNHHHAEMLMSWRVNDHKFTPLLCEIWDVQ
Chain of hFXR (P19793 whole entry partner): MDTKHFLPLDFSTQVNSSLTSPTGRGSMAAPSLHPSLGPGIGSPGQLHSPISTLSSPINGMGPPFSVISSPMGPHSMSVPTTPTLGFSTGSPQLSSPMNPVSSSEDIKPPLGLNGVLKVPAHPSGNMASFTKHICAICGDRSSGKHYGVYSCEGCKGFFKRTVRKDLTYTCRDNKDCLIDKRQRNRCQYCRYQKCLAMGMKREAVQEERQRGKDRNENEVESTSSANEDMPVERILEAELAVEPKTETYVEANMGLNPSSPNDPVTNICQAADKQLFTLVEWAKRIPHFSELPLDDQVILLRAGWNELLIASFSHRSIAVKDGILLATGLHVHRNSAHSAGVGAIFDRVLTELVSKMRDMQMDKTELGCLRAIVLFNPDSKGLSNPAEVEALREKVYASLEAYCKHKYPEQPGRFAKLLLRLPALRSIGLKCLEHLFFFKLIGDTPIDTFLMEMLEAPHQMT

EC50 [nM]	Compound
≤ 250	COc1ccc([C@H]2CC[C@H](CN(c3cccc(-c4cnn(C(C)C)c4)c3)C(=O)[C@H]3CC[C@H](O)CC3)CC2)nc1C#N [Compound 5.23, trans-N-((trans-4-(6-Cyano-5-methoxypyridin-2-yl)cyclohexyl)methyl)-4-hydroxy-N-(3-(1-isopropyl-1H-pyrazol-4-yl)phenyl)cyclohexanecarboxamide]
≤ 250	COc1ccc([C@H]2CC[C@H](CN(C(=O)C3CCCCC3)c3cccc(-c4cnn(C5CC5)c4)c3)CC2)cc1C [Compound 5.24, N-(3-(1-Cyclopropyl-1H-pyrazol-4-yl)phenyl)-N-((trans-4-(4-methoxy-3-methylphenyl)cyclohexyl)methyl)cyclohexanecarboxamide]
≤ 250	COc1ccc(C2CCC(CN(c3cccc(-c4cnn(C5CC5)c4)c3)C(=O)[C@H]3CC[C@@H](O)CC3)CC2)cc1C (stereo partly drawn) [Compound 5.25, cis-N-(3-(1-Cyclopropyl-1H-pyrazol-4-yl)phenyl)-4-hydroxy-N-((4-(4-methoxy-3-methylphenyl)cyclohexyl)methyl)cyclohexanecarboxamide]
250 to 1000	COc1ccc([C@H]2CC[C@H](CN(c3cc(-c4cnn(C5CC5)c4)cc(C)n3)C(=O)[C@H]3CC[C@H](O)CC3)CC2)cc1C [Compound 5.26, trans-N-(4-(1-cyclopropyl-1H-pyrazol-4-yl)-6-methylpyridin-2-yl)-4-hydroxy-N-((trans-4-(4-methoxy-3-methylphenyl)cyclohexyl)methyl)cyclohexanecarboxamide]
≤ 250	COc1ccc([C@H]2CC[C@H](CN(c3cccc(-c4cnn(C(C)C)c4)c3)C(=O)[C@H]3CC[C@](C)(O)CC3)CC2)cc1C [Compound 5.27, (1r,4r)-4-Hydroxy-N-(3-(1-isopropyl-1H-pyrazol-4-yl)phenyl)-N-((trans-4-(4-methoxy-3-methylphenyl)cyclohexyl)methyl)-4-methylcyclohexanecarboxamide]
≤ 250	COc1ccc([C@H]2CC[C@H](CN(c3cccc(-c4cnn(C(C)C)c4)c3)C(=O)[C@H]3CC[C@@](C)(O)CC3)CC2)cc1C [Compound 5.28, (1s, 4s)-4-Hydroxy-N-(3-(1-isopropyl-1H-pyrazol-4-yl)phenyl)-N-((trans-4-(4-methoxy-3-methylphenyl)cyclohexyl)methyl)-4-methylcyclohexanecarboxamide]
≤ 250	COc1ncc([C@H]2CC[C@H](CN(c3cc(-c4cnn(C(C)C)c4)ccn3)C(=O)[C@H]3CC[C@H](O)CC3)CC2)cc1C [Compound 5.29, trans-4-Hydroxy-N-(4-(1-Isopropyl-1H-pyrazol-4-yl)pyridin-2-yl)-N-((trans-4-(6-methoxy-5-methylpyridin-3-yl)cyclohexyl)methyl)cyclohexanecarboxamide]
≤ 250	COc1ncc([C@H]2CC[C@H](CN(c3cc(-c4cnn(C(C)C)c4)ccn3)C(=O)[C@H]3CC[C@H](O)CC3)CC2)cc1Cl [Compound 5.30, trans-N-((trans-4-(5-Chloro-6-methoxypyridin-3-yl)cyclohexyl)methyl)-4-hydroxy-N-(4-(1-isopropyl-1H-pyrazol-4-yl)pyridin-2-yl)cyclohexanecarboxamide]
≤ 250	COc1ccc(C23CCC(CN(c4cccc(-c5cnn(C6CC6)c5)c4)C(=O)[C@H]4CC[C@H](O)CC4)(CC2)CC3)cc1C [Compound 6, trans-N-(3-(1-Cyclopropyl-1H-pyrazol-4-yl)phenyl)-4-hydroxy-N-((4-(4-methoxy-3-methylphenyl)bicyclo[2.2.2]octan-1-yl)methyl)cyclohexanecarboxamide]
≤ 250	CN(C)c1ccc(C23CCC(CN(c4cccc(-c5cnn(C6CC6)c5)c4)C(=O)[C@H]4CC[C@H](O)CC4)(CC2)CC3)cn1 [Compound 6.01, trans-N-(3-(1-Cyclopropyl-1H-pyrazol-4-yl)phenyl)-N-((4-(6-(dimethylamino)pyridin-3-yl)bicyclo[2.2.2]octan-1-yl)methyl)-4-hydroxycyclohexanecarboxamide]
≤ 250	COc1ccc(C23CCC(CN(c4cccc(-c5cnn(C(C)C)c5)c4)C(=O)[C@H]4CC[C@H](O)CC4)(CC2)CC3)cc1C [Compound 6.02, trans-4-Hydroxy-N-(3-(1-isopropyl-1H-pyrazol-4-yl)phenyl)-N-((4-(4-methoxy-3-methylphenyl)bicyclo[2.2.2]octan-1-yl)methyl)cyclohexanecarboxamide]
≥ 1000	COc1ccc([C@H]2CC[C@H](CN(c3cccc(-c4cnn(C(C)C)c4)c3)C(=O)[C@H]3CC[C@H](N)CC3)CC2)cc1C [Compound 7, trans-4-Amino-N-(3-(1-isopropyl-1H-pyrazol-4-yl)phenyl)-N-((trans-4-(4-methoxy-3-methylphenyl)cyclohexyl)methyl)cyclohexanecarboxamide]
250 to 1000	COc1ccc(C23CCC(CN(c4cccc(-c5cnn(C6CC6)c5)c4)C(=O)[C@H]4CC[C@H](N)CC4)(CC2)CC3)cc1C [Compound 7.01, trans-4-Amino-N-(3-(1-cyclopropyl-1H-pyrazol-4-yl)phenyl)-N-((4-(4-methoxy-3-methylphenyl)bicyclo[2.2.2]octan-1-yl)methyl)cyclohexanecarboxamide]
250 to 1000	Cc1cc([C@H]2CC[C@H](CN(c3cccc(-c4cnn(C5CC5)c4)c3)C(=O)[C@H]3CC[C@H](O)CC3)CC2)ccc1O [Compound 8, trans-N-(3-(1-Cyclopropyl-1H-pyrazol-4-yl)phenyl)-4-hydroxy-N-((trans-4-(4-hydroxy-3-methylphenyl)cyclohexyl)methyl)cyclohexanecarboxamide]
